In patent US8354441B2, “Oxazoline derivatives” (Hoffmann-La Roche Inc., priority 2009, dated 2013):

Tests used:
mouse TAAR1 = target: T1, mouse TAAR1 (Mus musculus, UniProt Q923Y8); test: TAAR1 radioligand binding with [3H]-rac-2-(1,2,3,4-tetrahydro-1-naphthyl)-2-imidazoline, membranes of stably transfected HEK293 cells; details: first value of the cell, read-out: Ki (μM) mouse/rat: mouse
T1 construct: expressed in transfected cells; host or cells: HEK293 (ATCC # CRL-1573), stably transfected with pIRESneo2 expression plasmid
Procedure: (§1) For the construction of expression plasmids the coding sequences of human, rat and mouse TAAR 1 were amplified from genomic DNA essentially as described by Lindemann et al.. The Expand High Fidelity PCR System (Roche Diagnostics) was used with 1.5 mM Mg^2+ and purified PCR products were cloned into pCR2.1-TOPO cloning vector (Invitrogen) following the instructions of the manufacturer. PCR products were subcloned into the pIRESneo2 vector (BD Clontech, Palo Alto, Calif.), and expression vectors were sequence verified before introduction in cell lines.
(§2) HEK293 cells (ATCC # CRL-1573) were cultured essentially as described by Lindemann et al. (2005). For the generation of stably transfected cell lines HEK293 cells were transfected with the pIRESneo2 expression plasmids containing the TAAR coding sequences (described above) with Lipofectamine 2000 (Invitrogen) according to the instructions of the manufacturer, and 24 hrs post transfection the culture medium was supplemented with 1 mg/ml G418 (Sigma, Buchs, Switzerland). After a culture period of about 10 d clones were isolated, expanded and tested for responsiveness to trace amines (all compounds purchased from Sigma) with the cAMP Biotrak Enzyme immunoassay (EIA) System (Amersham) following the non-acetylation EIA procedure provided by the manufacturer.
(§3) Cells at confluence were rinsed with ice-cold phosphate buffered saline without Ca^2+ and Mg^2+ containing 10 mM EDTA and pelleted by centrifugation at 1000 rpm for 5 min at 4° C. The pellet was then washed twice with ice-cold phosphate buffered saline and the cell pellet was frozen immediately by immersion in liquid nitrogen and stored until use at −80° C. The cell pellet was then suspended in 20 ml HEPES-NaOH (20 mM), pH 7.4 containing 10 mM EDTA, and homogenized with a Polytron (PT 3000, Kinematica) at 10,000 rpm for 10 s. The homogenate was centrifuged at 48,000×g for 30 min at 4° C. and the pellet resuspended in 20 ml HEPES-NaOH (20 mM), pH 7.4 containing 0.1 mM EDTA (buffer A), and homogenized with a Polytron at 10,000 rpm for 10 s. The homogenate was then centrifuged at 48,000×g for 30 min at 4° C. and the pellet resuspended in 20 ml buffer A, and homogenized with a Polytron at 10,000 rpm for 10 s. Protein concentration was determined by the method of Pierce (Rockford, Ill.). The homogenate was then centrifuged at 48,000×g for 10 min at 4° C., resuspended in HEPES-NaOH (20 mM), pH 7.0 including MgCl2 (10 mM) and […] homogenized with a Polytron at 10,000 rpm for 10 s.
(§4) The binding assay was performed at 4° C. in a final volume of 1 ml, and with an incubation time of 30 min. The radioligand [^3H]-rac-2-(1,2,3,4-tetrahydro-1-naphthyl)-2-imidazoline was used at a concentration equal to the calculated Kd value of 60 nM to give a bound at around 0.1% of the total added radioligand concentration, and a specific binding which represented approximately 70-80% of the total binding. Non-specific binding was defined as the amount of [^3H]-rac-2-(1,2,3,4-tetrahydro-1-naphthyl)-2-imidazoline bound in the presence of the appropriate unlabelled ligand (10 μM). Competing ligands were tested in a wide range of concentrations (10 pM-30 μM). […] Each experiment was performed in duplicate. All incubations were terminated by rapid filtration through UniFilter-96 plates (Packard Instrument Company) and glass filter GF/C, pre-soaked for at least 2 h in polyethylenimine 0.3%, and using a Filtermate 96 Cell Harvester (Packard Instrument Company). The tubes and filters were then washed 3 times with 1 ml aliquots of cold buffer B. Filters were not dried and soaked in Ultima gold (45 μl/well, Packard Instrument Company) and bound radioactivity was counted by a TopCount Microplate Scintillation Counter (Packard Instrument Company).

rat TAAR1 = target: T2, rat TAAR1 (Rattus norvegicus, UniProt Q923Y9); test: as above; details: second value of the cell, read-out: Ki (μM) mouse/rat: rat
T2 construct: expressed in transfected cells; host or cells: HEK293 (ATCC # CRL-1573), stably transfected with pIRESneo2 expression plasmid
Procedure: as §1, §2, §3, §4

T1 sequence (Q923Y8 whole entry): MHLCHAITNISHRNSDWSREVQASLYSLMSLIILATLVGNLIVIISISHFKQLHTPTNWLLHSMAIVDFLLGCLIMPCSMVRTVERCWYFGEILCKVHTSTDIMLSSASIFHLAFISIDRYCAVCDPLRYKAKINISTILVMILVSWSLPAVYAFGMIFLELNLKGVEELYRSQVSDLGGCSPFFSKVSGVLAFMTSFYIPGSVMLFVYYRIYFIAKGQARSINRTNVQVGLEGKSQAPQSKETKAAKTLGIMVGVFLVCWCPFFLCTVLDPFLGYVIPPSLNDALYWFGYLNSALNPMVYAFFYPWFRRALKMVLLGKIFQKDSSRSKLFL
T2 sequence (Q923Y9 whole entry): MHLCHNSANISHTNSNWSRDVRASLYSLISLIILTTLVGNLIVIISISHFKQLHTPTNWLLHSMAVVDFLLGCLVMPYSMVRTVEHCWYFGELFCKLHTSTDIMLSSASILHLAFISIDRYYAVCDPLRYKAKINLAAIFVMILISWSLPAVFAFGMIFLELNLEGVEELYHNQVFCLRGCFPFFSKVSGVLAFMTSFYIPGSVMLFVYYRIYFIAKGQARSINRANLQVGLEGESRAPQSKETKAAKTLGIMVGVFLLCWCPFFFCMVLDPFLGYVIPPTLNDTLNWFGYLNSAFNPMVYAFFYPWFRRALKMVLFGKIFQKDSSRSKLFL

| Ki (mouse TAAR1) | Ki (rat TAAR1) | Structure (SMILES) |
| --- | --- | --- |
| 0.0026 µM | 0.0005 µM | NC1=NC(c2ccc(NC(=O)Nc3ccc(Cl)cc3)cc2)CO1 (racemic) [Example 1, (RS)-1-[4-(2-Amino-4,5-dihydro-oxazol-4-yl)-phenyl]-3-(4-chloro-phenyl)-urea] |
| 0.0002 µM | 0.0003 µM | NC1=N[C@@H](CCc2ccc(NC(=O)Nc3ccc(Cl)cc3)cc2)CO1 [Example 3, 1-{4-[2-((S)-2-Amino-4,5-dihydro-oxazol-4-yl)-ethyl]-phenyl}-3-(4-chloro-phenyl)-urea] |
| 0.0034 µM | 0.0001 µM | NC1=N[C@@H](CCCc2ccc(NC(=O)c3ccc(Cl)cc3)cc2)CO1 [Example 8, N-{4-[3-((S)-2-Amino-4,5-dihydro-oxazol-4-yl)-propyl]-phenyl}-4-chloro-benzamide] |
| 0.0002 µM | 0.0004 µM | NC1=N[C@@H](CCc2ccc(NC(=O)c3ccc(Cl)cc3)cc2)CO1 [Example 9, N-{4-[2-((S)-2-Amino-4,5-dihydro-oxazol-4-yl)-ethyl]-phenyl}-4-chloro-benzamide] |
| 0.0012 µM | 0.002 µM | CC[C@@H](C[C@H]1COC(N)=N1)c1ccc(NC(=O)Nc2ccc(F)cc2)cc1 [Example 12, 1-{4-[(S)-1-((S)-2-Amino-4,5-dihydro-oxazol-4-ylmethyl)-propyl]-phenyl}-3-(4-fluoro-phenyl)-urea] |
| 0.0007 µM | 0.0023 µM | CC[C@@H](C[C@H]1COC(N)=N1)c1ccc(NC(=O)Nc2ccc(C(F)(F)F)cc2)cc1 [Example 13, 1-{4-[(S)-1-((S)-2-Amino-4,5-dihydro-oxazol-4-ylmethyl)-propyl]-phenyl}-3-(4-trifluoromethyl-phenyl)-urea] |
| 0.0001 µM | 0.0001 µM | NC1=N[C@@H](CCc2ccc(NC(=O)Nc3ccc(Cl)c(Cl)c3)cc2)CO1 [Example 14, 1-{4-[2-((S)-2-Amino-4,5-dihydro-oxazol-4-yl)-ethyl]-phenyl}-3-(3,4-dichloro-phenyl)-urea] |
| 0.0001 µM | 0.0001 µM | NC1=N[C@@H](CCc2ccc(NC(=O)Nc3ccc(C(F)(F)F)cc3)cc2)CO1 [Example 15, 1-{4-[2-((S)-2-Amino-4,5-dihydro-oxazol-4-yl)-ethyl]-phenyl}-3-(4-trifluoromethyl-phenyl)-urea] |
| 0.0008 µM | 0.0003 µM | NC1=N[C@@H](CCc2ccc(NC(=O)c3ccc(F)cc3)cc2)CO1 [Example 16, N-{4-[2-((S)-2-Amino-4,5-dihydro-oxazol-4-yl)-ethyl]-phenyl}-4-fluoro-benzamide] |
| 0.0002 µM | 0.0004 µM | NC1=N[C@@H](CCc2ccc(NC(=O)c3ccc(C(F)(F)F)cc3)cc2)CO1 [Example 17, N-{4-[2-((S)-2-Amino-4,5-dihydro-oxazol-4-yl)-ethyl]-phenyl}-4-trifluoromethyl-benzamide] |
| 0.0002 µM | 0.0002 µM | NC1=N[C@@H](CCc2ccc(NC(=O)c3cccc(Cl)c3)cc2)CO1 [Example 18, N-{4-[2-((S)-2-Amino-4,5-dihydro-oxazol-4-yl)-ethyl]-phenyl}-3-chloro-benzamide] |
| 0.0025 µM | 0.0035 µM | NC1=N[C@@H](CCc2ccc(NC(=O)c3ccc(Cl)nc3)cc2)CO1 [Example 31, N-{4-[2-((S)-2-Amino-4,5-dihydro-oxazol-4-yl)-ethyl]-phenyl}-6-chloro-nicotinamide] |
| 0.0006 µM | 0.001 µM | NC1=N[C@@H](CCc2ccc(NC(=O)c3ccc(Cl)cn3)cc2)CO1 [Example 33, 5-Chloro-pyridine-2-carboxylic acid {4-[2-((S)-2-amino-4,5-dihydro-oxazol-4-yl)-ethyl]-phenyl}-amide] |
| 0.0067 µM | 0.0035 µM | NC1=N[C@@H](CCc2ccc(NC(=O)c3ncc(Cl)cn3)cc2)CO1 [Example 34, 5-Chloro-pyrimidine-2-carboxylic acid {4-[2-((S)-2-amino-4,5-dihydro-oxazol-4-yl)-ethyl]-phenyl}-amide] |
| 0.0001 µM | 0.0003 µM | NC1=N[C@@H](CCc2ccc(NC(=O)Nc3ccc(Cl)cn3)cc2)CO1 [Example 35, 1-{4-[2-((S)-2-Amino-4,5-dihydro-oxazol-4-yl)-ethyl]-phenyl}-3-(5-chloro-pyridin-2-yl)-urea] |
| 0.0017 µM | 0.0004 µM | NC1=N[C@@H](CCc2ccc(NC(=O)Nc3ccc(Cl)nc3)cc2)CO1 [Example 38, 1-{4-[2-((S)-2-Amino-4,5-dihydro-oxazol-4-yl)-ethyl]-phenyl}-3-(6-chloro-pyridin-3-yl)-urea] |
| 0.0036 µM | 0.0187 µM | NC1=N[C@@H](CCc2ccc(NC(=O)C3CCC(F)(F)CC3)cc2)CO1 [Example 40, 4,4-Difluoro-cyclohexanecarboxylic acid {4-[2-((S)-2-amino-4,5-dihydro-oxazol-4-yl)-ethyl]-phenyl}-amide] |
| 0.0091 µM | 0.0094 µM | CC1(C(=O)Nc2ccc(CC[C@H]3COC(N)=N3)cc2)CC1 [Example 41, 1-Methyl-cyclopropanecarboxylic acid {4-[2-((S)-2-amino-4,5-dihydro-oxazol-4-yl)-ethyl]-phenyl}-amide] |
| 0.0029 µM | 0.002 µM | NC1=N[C@@H](CCc2ccc(NC(=O)C3CCCC3)cc2)CO1 [Example 43, Cyclopentanecarboxylic acid {4-[2-((S)-2-amino-4,5-dihydro-oxazol-4-yl)-ethyl]-phenyl}-amide] |
| 0.0035 µM | 0.0014 µM | NC1=N[C@@H](CCc2ccc(NC(=O)C3CC(F)(F)C3)cc2)CO1 [Example 44, 3,3-Difluoro-cyclobutanecarboxylic acid {4-[2-((S)-2-amino-4,5-dihydro-oxazol-4-yl)-ethyl]-phenyl}-amide] |
| 0.0026 µM | 0.0017 µM | NC1=N[C@@H](CCc2ccc(NC(=O)C3CCC3)cc2)CO1 [Example 45, Cyclobutanecarboxylic acid {4-[2-((S)-2-amino-4,5-dihydro-oxazol-4-yl)-ethyl]-phenyl}-amide] |
| 0.0042 µM | 0.0018 µM | NC1=N[C@@H](CCc2ccc(NC(=O)C3CC3)cc2)CO1 [Example 46, Cyclopropanecarboxylic acid {4-[2-((S)-2-amino-4,5-dihydro-oxazol-4-yl)-ethyl]-phenyl}-amide] |
| 0.001 µM | 0.0003 µM | NC1=N[C@@H](CCc2ccc(C(=O)Nc3ccc(Cl)cc3)cc2)CO1 [Example 48, 4-[2-((S)-2-Amino-4,5-dihydro-oxazol-4-yl)-ethyl]-N-(4-chloro-phenyl)-benzamide] |
| 0.0024 µM | 0.0036 µM | NC1=N[C@@H](CCc2ccc(NC(=O)C3CCCCC3)cc2)CO1 [Example 49, Cyclohexanecarboxylic acid {4-[2-((S)-2-amino-4,5-dihydro-oxazol-4-yl)-ethyl]-phenyl}-amide] |
| 0.0073 µM | 0.006 µM | NC1=N[C@@H](CCc2ccc(NC(=O)C3(C(F)(F)F)CC3)cc2)CO1 [Example 52, 1-Trifluoromethyl-cyclopropanecarboxylic acid {4-[2-((S)-2-amino-4,5-dihydro-oxazol-4-yl)-ethyl]-phenyl}-amide] |
| 0.0009 µM | 0.0016 µM | NC1=N[C@@H](CCc2ccc(NC(=O)C3(c4ccc(Cl)cc4)CC3)cc2)CO1 [Example 53, 1-(4-Chloro-phenyl)-cyclopropanecarboxylic acid {4-[2-((S)-2-amino-4,5-dihydro-oxazol-4-yl)-ethyl]-phenyl}-amide] |
